Data reported in patent US12171766B2, “Methods of treating patients suffering from brain injury and methods of increasing the value of the extended Glasgow Outcome Scale of patients suffering from brain injury” (VERINOS OPERATIONS GMBH, priority 2021, dated 2024).

System: adult intensive care patients with acute moderate and severe TBI
Assay: NOSTRA phase III trial: Extended Glasgow Outcome Scale (eGOS) at 3 and 6 months, Ronopterin 17 mg/kg infused over 48 hours vs placebo, incl. post hoc subgroup analyses
Format: in vivo, human
Description: A phase III trial of Ronopterin infusion to adult TBI patients (18-60 years) with acute moderate and severe TBI was performed. Based on the results of the earlier phase II study, the NOSTRA (NO Synthase in TRAumatic Brain Injury) phase III trial was designed to detect clinically relevant differences in clinical outcome (Extended Glasgow Outcome Score at 6 months after injury) as primary endpoint.
NOSTRA III was a multicentre, prospective, two parallel groups, blinded, placebo-controlled, randomised phase III trial of Ronopterin infusion for 48 hours in adult intensive care patients with acute moderate and severe TBI. […] The detailed study protocol is described by Tegtmeier et al. Efficacy of Ronopterin (VAS203) in Patients with Moderate and Severe Traumatic Brain Injury (NOSTRA phase III trial): study protocol of a confirmatory, placebo-controlled, randomised, double blind, multi-centre study. Trials. 2020. A total of 224 evaluable patients with moderate and severe TBI were enrolled in 32 centres in Austria, France, Germany, Spain, and United Kingdom. The trial started on 24 Aug. 2016 with last-patient last-visit on 17 Jun. 2020.
Patients between 18 and 60 years of age with Glasgow Coma Score≥3 requiring intracranial pressure (ICP) monitoring were enrolled. Other inclusion criteria were TBI within the last 18 hours but at least 6 hours after the injury, which were expected to survive more than 24 hours after admission.
Ronopterin and placebo (0.9% saline) were infused continuously via central venous catheter at a constant rate. A total dose of 17 mg/kg body weight of Ronopterin was infused for 48 hours (daily dose 8.5 mg/kg body weight).
The primary outcome was the difference between eGOS in Ronopterin and placebo treated patients at 6 months after trauma. The eGOS was determined by a face to face meeting by trained assessors.
The null-hypothesis of no shift across the 8 ordered categories of eGOS for the two treatment groups was tested after six months based on a proportional odds model stratified by age (18-39 years and 40-60 years). The treatment effect was estimated using ordinal Logistic regression model as the (proportional) odds ratio of Ronopterin versus Placebo. Treatment and age (18-39 years and 40-60 years) were included in the model. The proportional odds assumption was tested using a Chi-Square Score Test.
As secondary efficacy endpoint the eGOS at 3 months was analysed using the same statistics.
The main objective of the post hoc analyses was to estimate the effect size of VAS203 compared with placebo for the primary endpoint eGOS-I in the subgroups time to infusion ≤12 hours and >12 hours. Supportive analyses were conducted by age group (<40 years, ≥40 years) because age group was used as a stratification factor in the study. Comparability between treatment groups regarding demographics as well as severity and location of disease was investigated using similar methods as in the main CSR.
The proportions of patients per eGOS-I level at 3 months and at 6 months were calculated. For the change in eGOS-I over time, the proportion of patients with changes from 3 to 6 months were calculated by eGOS-I level, and in addition categorised as decreased (i.e. any decrease in eGOS-I level from 3 to 6 months), unchanged (i.e. no change in eGOS-I level from 3 to 6 months), and increased (i.e. any increase in eGOS-I level from 3 to 6 months).
Ordinal logistic regression was used for the analysis of eGOS-I at 3 months and at 6 months, including treatment group and age group (<40 years, ≥40 years) as factors in the model. Estimated odds ratios for the comparison of the VAS203 and placebo groups of >1 mean that eGOS-I was higher in the VAS203 group than in the placebo group across the 8 levels, whereas odds ratios of <1 mean that eGOS-I was lower in the VAS203 group than in the placebo group. Odds ratios together with their 95% CIs were used to estimate and assess the size of the treatment effect of VAS203 compared to placebo. […]

[1] = female patients, ≤12 hours (FIGS. 14A-D)

In the case of CC(O)C(O)C1CNc2nc(N)nc(N)c2N1 [Ronopterin, 4-Amino-(6R,S)-5,6,7,8-tetrahydro-L-biopterin], the “number of patients with increase in eGOS by at least 2 levels from 3 to 6 months” value (shortened to “number of patients with increase in eGOS”) (age 40-60 years, all times to infusion (FIG. 8C)) is reported as 10, the “more patients with higher increase in eGOS over time vs placebo: significance” value (age 40-60 years, all times to infusion (FIG. 8D)) is reported as “not (statistically) significant” and the “increase in eGOS levels from 3 to 6 months” value (from here on “increase in eGOS levels”) (age 40-60 years, ≤12 hours (FIG. 9A)) is reported as “up to 4 levels”. The “number of patients with increase in eGOS” value (age 40-60 years, ≤12 hours (FIG. 9C)) was 5, the “Odds ratio for increases in eGOS levels from 3 to 6 months” value (age group 18-39 (<40), early infusion (≤12 hours), vs placebo) was 4.398 and the “patients with an increase in their eGOS levels (eGOS responders) vs placebo” value (age ≥40 years, ≤12 hours (FIGS. 9A-D)) was “trend to more patients with an increase in their eGOS levels”. For the same molecule, the “increase in eGOS levels” value (all ages, >12 hours (FIG. 5E)) was “up to 4 levels”, the “number of patients with increase in eGOS” value (all ages, early infusion ≤12 hours (FIG. 5C)) was 9 and the “number of patients with increase in eGOS” value (all ages, late infusion >12 hours (FIG. 5G)) was 15. The “increase in eGOS levels” value (all ages, ≤12 hours (FIG. 5A)) was “up to 4 levels”, the “increase in proportion of patients with an eGOS increase by at least 1 level compared to Placebo: significance” value (all ages, ≤12 hours (FIGS. 5A-D)) was “significant” and the “less patients with a decrease in eGOS over time vs placebo: significance” value (all patients, all times to infusion) was “not (statistically) significant”. The “increase in eGOS levels” value (all patients, all times to infusion (FIG. 4A)) was “up to 4 levels”, the “number of patients with increase in eGOS” value (all patients, all times to infusion (FIG. 4C)) was 24 and the “more patients with higher increase in eGOS over time vs placebo: significance” value (all patients, all times to infusion (FIG. 4D)) was “not (statistically) significant”. For the same molecule, the “overall eGOS-I rating at 6 months, Ronopterin vs placebo (primary efficacy endpoint)” value (all patients, ordinal logistic regression) was “No difference”, the “increase in eGOS levels” value (female patients, >12 hours (FIG. 14E)) was “up to 2 levels” and the “number of patients with increase in eGOS” value (female patients, >12 hours (FIG. 14G)) was 2. The “increase in eGOS levels” value (female patients, all times to infusion (FIG. 13A)) was “up to 2 levels”, the “number of patients with increase in eGOS” value (female patients, all times to infusion (FIG. 13C)) was 2 and the “less female patients with higher increase in eGOS over time vs placebo: significance” value (female patients, all times to infusion (FIG. 13D)) was “not (statistically) significant”. The “increase in proportion of patients with Good Recovery (eGOS 7 and 8) from 3 to 6 months, compared to Placebo” value (from here on “increase … to 6 months, compared to Placebo”) (female patients, early infusion ≤12 hours (FIG. 18)) was “exceeding the proportion in Placebo-treated patients”, the “increase … to 6 months, compared to Placebo” value (female patients, late infusion >12 hours (FIG. 18)) was “exceeding the proportion in Placebo-treated patients” and the “increase in eGOS levels” value (female patients, ≤12 hours (FIG. 14A)) was “up to 2 levels”. The “number of patients with increase in eGOS” value (female patients, ≤12 hours (FIG. 14C)) was 0, the “Good Recovery at 3 months vs placebo” value [1] was “higher Good Recovery at 3 months” and the “eGOS responders vs placebo” value [1] was “less female eGOS responders”. For the same molecule, the “increase in eGOS levels” value (male patients, >12 hours (FIG. 12E)) was “up to 4 levels”, the “number of patients with increase in eGOS” value (male patients, >12 hours (FIG. 12G)) was 13 and the “increase in eGOS levels” value (male patients, all times to infusion (FIG. 11A)) was “up to 4 levels”. For the same molecule, the “number of patients with increase in eGOS” value (male patients, all times to infusion (FIG. 11C)) was 22, the “more patients with higher increase in eGOS over time vs placebo: significance” value (male patients, all times to infusion (FIG. 11D)) was “not (statistically) significant” and the “patients with a decrease in eGOS over time vs placebo” value (male patients, all times to infusion, p=0.04) was “significantly less”. The “increase … to 6 months, compared to Placebo” value (male patients, early infusion ≤12 hours (FIG. 17)) was “exceeding the proportion in Placebo-treated patients”, the “increase … to 6 months, compared to Placebo” value (male patients, late infusion >12 hours (FIG. 17)) was “less pronounced compared to Placebo-treated patients” and the “increase in eGOS levels” value (male patients, ≤12 hours (FIG. 12A)) was “up to 4 levels”. For the same molecule, the “number of patients with increase in eGOS” value (male patients, ≤12 hours (FIG. 12C)) was 9, the “increase in proportion of patients with an eGOS increase by at least 1 level compared to Placebo: significance” value (male patients, ≤12 hours (FIGS. 12A-D)) was “significant” and the “median eGOS at 6 months” value (time to infusion >12 hours) was 5. For the same molecule, the “proportion of patients with Good Recovery (eGOS 7 and 8) at 6 months” value (time to infusion >12 hours) was 25%, the “increase of proportion of patients with a Good Recovery at 6 months compared to the Placebo group” value (time to infusion ≤12 hours) was 61% and the “median eGOS at 6 months” value (time to infusion ≤12 hours) was 6. The “proportion of patients with Good Recovery (eGOS 7 and 8) at 6 months” value (time to infusion ≤12 hours) was 37% and the “NNT for Good Recovery (eGOS 7 and 8) at 6 months” value (time to infusion ≤12 hours, vs placebo) was 8.
